Data from patent US11453660B2, “Androgen receptor and glucocorticoid receptor modulators” (ONCOSTELLAE, S.L., priority 2017, dated 2022).
Each block holds one molecule with its values, some of them ahead of it.

Molecular target: T1, Human Glucocorticoid Receptor (Homo sapiens, UniProt P04150)
T1 construct: endogenous in cells; host or cells: cytosol from IM-9 cell line
T1 sequence (P04150 1-777): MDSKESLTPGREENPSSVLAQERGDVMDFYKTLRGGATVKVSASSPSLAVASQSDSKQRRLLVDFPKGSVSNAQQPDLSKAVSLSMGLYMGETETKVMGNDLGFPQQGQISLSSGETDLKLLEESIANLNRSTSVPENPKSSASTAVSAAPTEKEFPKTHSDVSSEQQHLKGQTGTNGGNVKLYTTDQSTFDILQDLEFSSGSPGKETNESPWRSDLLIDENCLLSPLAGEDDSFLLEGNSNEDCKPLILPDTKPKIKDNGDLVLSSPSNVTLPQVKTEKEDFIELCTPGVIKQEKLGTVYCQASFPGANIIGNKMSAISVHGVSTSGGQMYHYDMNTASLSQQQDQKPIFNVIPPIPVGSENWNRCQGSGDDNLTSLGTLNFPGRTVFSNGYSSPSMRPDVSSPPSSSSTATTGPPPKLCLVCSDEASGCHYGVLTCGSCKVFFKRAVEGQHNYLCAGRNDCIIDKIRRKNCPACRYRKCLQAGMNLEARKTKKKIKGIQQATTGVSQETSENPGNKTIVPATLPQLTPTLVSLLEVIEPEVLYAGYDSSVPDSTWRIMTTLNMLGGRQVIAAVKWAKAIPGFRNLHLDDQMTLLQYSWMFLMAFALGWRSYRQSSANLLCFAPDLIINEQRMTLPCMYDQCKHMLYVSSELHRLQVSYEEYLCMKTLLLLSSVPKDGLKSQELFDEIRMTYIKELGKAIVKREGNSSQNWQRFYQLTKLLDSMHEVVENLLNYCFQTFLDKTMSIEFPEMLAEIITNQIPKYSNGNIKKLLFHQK
Assay: Competition Binding in IM-9 Human Glucocorticoid Receptor (GR IM-9)
Details: cytosol from IM-9 cell line, 1.5 nM [3H]-Dexamethasone, 4° C. for 6 hours
Protocol: Competition Binding in IM-9 Human Glucocorticoid Receptor (GR IM-9)
Glucocorticoid receptor competition binding assays were carried out in a polypropilene 96-well plate. In each well was incubated 100 μg of cytosol from IM-9 cell line, 1.5 nM [3H]-Dexamethasone (71 Ci/mmol, 1 mCi/ml, Perkin Elmer NET1192001MC) and compounds studied and standard. Non-specific binding was determined in the presence of Triamcinolone 10 μM (Sigma Aldrich T6376).
The reaction mixture (Vt: 200 μl/well) was incubated at 4° C. for 6 hours, 180 μL was transferred to GF/B 96-well plate (Millipore, Madrid, Spain) pretreated with 0.5% of PEI and treated with binding buffer (TES 10 mM, sodium molybdate 10 mM, EDTA 1 mM, pH 7.4, 2-mercaptoethanol 20 mM, Glycerol 10%) after was filtered and washed six times with 250 μl wash buffer (TES 10 mM, sodium molybdate 10 mM, EDTA 1 mM, pH 7.4, 2-mercaptoethanol 20 mM Glycerol 10%), before measuring in a microplate beta scintillation counter (Microbeta Trilux, PerkinElmer, Madrid, Spain).

SMILES: CC(=O)C1=C(C)NC(C)=C(C(=O)OCc2ccnc(Cl)c2)C1c1csc2ncccc12 (stereo not drawn) [Example C77, (2-chloropyridin-4-yl)methyl 5-acetyl-2,6-dimethyl-4-(thieno[2,3-b]pyridin-3-yl)-1,4-dihydropyridine-3-carboxylate]
- IC50: 100 to 1000 nM

SMILES: CC(=O)C1=C(C)NC(C2CC2)=C(C(=O)OC2COC2)C1c1csc2c(Br)cccc12 (stereo not drawn) [Example C81, Oxetan-3-yl 5-acetyl-4-(7-bromobenzo[b]thiophen-3-yl)-2-cyclopropyl-6-methyl-1,4-dihydropyridine-3-carboxylate]
- IC50: < 100 nM

SMILES: CC(=O)C1=C(C)NC(C2CC2)=C(C(=O)OC(C)C)C1c1csc2c(Br)cccc12 (stereo not drawn) [Example C82, Isopropyl 5-acetyl-4-(7-bromobenzo[b]thiophen-3-yl)-2-cyclopropyl-6-methyl-1,4-dihydropyridine-3-carboxylate]
- IC50: < 100 nM

SMILES: COC(=O)C1=C(C(F)(F)F)NC(C)=C(C(C)=O)C1c1csc2c(Br)cccc12 (stereo not drawn) [Example C83, Methyl 5-acetyl-4-(7-bromobenzo[b]thiophen-3-yl)-6-methyl-2-(trifluoromethyl)-1,4-dihydropyridine-3-carboxylate]
- IC50: 100 to 1000 nM

SMILES: CC(=O)C1=C(C)NC(C2CC2)=C(C(=O)OCC2CC2)C1c1csc2c(Br)cccc12 (stereo not drawn) [Example C84, Cyclopropylmethyl 5-acetyl-4-(7-bromobenzo[b]thiophen-3-yl)-2-cyclopropyl-6-methyl-1,4-dihydropyridine-3-carboxylate]
- IC50: < 100 nM

SMILES: CC(=O)C1=C(C)NC(C2CC2)=C(C(=O)OCc2cccc(Cl)c2)C1c1csc2ncccc12 (stereo not drawn) [Example C94, 3-chlorobenzyl 5-acetyl-2-cyclopropyl-6-methyl-4-(thieno[2,3-b]pyridin-3-yl)-1,4-dihydropyridine-3-carboxylate]
- IC50: < 100 nM

SMILES: COC(=O)C1=C(C2CC2)NC(C)=C(C(C)=O)C1c1csc2c(F)cccc12 (stereo not drawn) [Example C98, Methyl 5-acetyl-2-cyclopropyl-4-(7-fluorobenzo[b]thiophen-3-yl)-6-methyl-1,4-dihydropyridine-3-carboxylate]
- IC50: 100 to 1000 nM

SMILES: CC(=O)C1=C(C)NC(C2CC2)=C(C(=O)OCC2CC2)C1c1csc2ncccc12 (stereo not drawn) [Example C99, Cyclopropylmethyl 5-acetyl-2-cyclopropyl-6-methyl-4-(thieno[2,3-b]pyridin-3-yl)-1,4-dihydropyridine-3-carboxylate]
- IC50: 100 to 1000 nM

SMILES: COC(=O)C1=C(C2CCC2)NC(C)=C(C(C)=O)C1c1csc2c(Br)cccc12 (stereo not drawn) [Example C102, Methyl 5-acetyl-4-(7-bromobenzo[b]thiophen-3-yl)-2-cyclobutyl-6-methyl-1,4-dihydropyridine-3-carboxylate]
- IC50: 100 to 1000 nM

SMILES: COC(=O)C1=C(C2CC2)NC(C)=C(C#N)C1c1csc2c(C#N)cccc12 (stereo not drawn) [Example C104, Methyl 5-cyano-4-(7-cyanobenzo[b]thiophen-3-yl)-2-cyclopropyl-6-methyl-1,4-dihydropyridine-3-carboxylate]
- IC50: < 100 nM

SMILES: COC(=O)C1=C(C2CCCCC2)NC(C)=C(C(C)=O)C1c1csc2c(Br)cccc12 (stereo not drawn) [Example C106, Methyl 5-acetyl-4-(7-bromobenzo[b]thiophen-3-yl)-2-cyclohexyl-6-methyl-1,4-dihydropyridine-3-carboxylate]
- IC50: 100 to 1000 nM

SMILES: COC(=O)C1=C(C)NC(C2CC2)=C(C(=O)OCC2CC2)C1c1csc2c(C#N)cccc12 (stereo not drawn) [Example C109, 3-(cyclopropylmethyl) 5-methyl 4-(7-cyanobenzo[b]thiophen-3-yl)-2-cyclopropyl-6-methyl-1,4-dihydropyridine-3,5-dicarboxylate]
- IC50: < 100 nM

SMILES: COC(=O)C1=C(C2CC2)NC(C2CC2)=C(C(=O)OCC2CC2)C1c1csc2c(C#N)cccc12 (stereo not drawn) [Example C110, 3-(cyclopropylmethyl) 5-methyl 4-(7-cyanobenzo[b]thiophen-3-yl)-2,6-dicyclopropyl-1,4-dihydropyridine-3,5-dicarboxylate]
- IC50: < 100 nM

SMILES: CC1=C(C#N)C(c2csc3c(C#N)cccc23)C(C(=O)OCC2CC2)=C(C2CC2)N1 (stereo not drawn) [Example C111, Cyclopropylmethyl 5-cyano-4-(7-cyanobenzo[b]thiophen-3-yl)-2-cyclopropyl-6-methyl-1,4-dihydropyridine-3-carboxylate]
- IC50: < 100 nM

Next, values leading:

- IC50: ≥ 1000 nM
SMILES: CC(=O)C1=C(C)NC(C)=C(C(=O)OCc2ccncc2F)C1c1csc2ncccc12 (stereo not drawn) [Example C68, (3-fluoropyridin-4-yl)methyl 5-acetyl-2,6-dimethyl-4-(thieno[2,3-b]pyridin-3-yl)-1,4-dihydropyridine-3-carboxylate]

- IC50: ≥ 1000 nM
SMILES: COC(=O)C1=C(C2CC2)NC(C)=C(C(C)=O)C1c1csc2c(C(=O)C(F)(F)F)cccc12 (stereo not drawn) [Example C85, Methyl 5-acetyl-2-cyclopropyl-6-methyl-4-(7-(2,2,2-trifluoroacetyl)benzo[b]thiophen-3-yl)-1,4-dihydropyridine-3-carboxylate]

- IC50: 100 to 1000 nM
SMILES: CC(=O)C1=C(C)NC(C)=C(C(=O)OC(C)(C)c2ccccc2)C1c1csc2c(Br)cccc12 (stereo not drawn) [Example C86, 2-phenylpropan-2-yl 5-acetyl-4-(7-bromobenzo[b]thiophen-3-yl)-2,6-dimethyl-1,4-dihydropyridine-3-carboxylate]

- IC50: < 100 nM
SMILES: CC(=O)C1=C(C)NC(C2CC2)=C(C(=O)OC2CCCCC2)C1c1csc2ncccc12 (stereo not drawn) [Example C91, Cyclohexyl 5-acetyl-2-cyclopropyl-6-methyl-4-(thieno[2,3-b]pyridin-3-yl)-1,4-dihydropyridine-3-carboxylate]

- IC50: < 100 nM
SMILES: CC(=O)C1=C(C)NC(C2CC2)=C(C(=O)OC(C)(C)c2ccccc2)C1c1csc2ncccc12 (stereo not drawn) [Example C92, 2-phenylpropan-2-yl 5-acetyl-2-cyclopropyl-6-methyl-4-(thieno[2,3-b]pyridin-3-yl)-1,4-dihydropyridine-3-carboxylate]

- IC50: 100 to 1000 nM
SMILES: CC(=O)C1=C(C)NC(C2CC2)=C(C(=O)C2CC2)C1c1csc2c(Br)cccc12 (stereo not drawn) [Example C93, 1-(4-(7-Bromobenzo[b]thiophen-3-yl)-5-(cyclopropanecarbonyl)-6-cyclopropyl-2-methyl-1,4-dihydropyridin-3-yl)ethan-1-one]

- IC50: < 100 nM
SMILES: CC(=O)C1=C(C)NC(C)=C(C(=O)OC(C)(C)c2ccc(F)cc2)C1c1csc2ncccc12 (stereo not drawn) [Example C95, 2-(4-fluorophenyl)propan-2-yl 5-acetyl-2,6-dimethyl-4-(thieno[2,3-b]pyridin-3-yl)-1,4-dihydropyridine-3-carboxylate]

- IC50: 100 to 1000 nM
SMILES: CC(=O)C1=C(C)NC(C2CC2)=C(C(=O)OC(C)(C)c2ccc(F)cc2)C1c1csc2c(Br)cccc12 (stereo not drawn) [Example C96, 2-(4-fluorophenyl)propan-2-yl 5-acetyl-4-(7-bromobenzo[b]thiophen-3-yl)-2-cyclopropyl-6-methyl-1,4-dihydropyridine-3-carboxylate]

- IC50: < 100 nM
SMILES: CC(=O)C1=C(C)NC(C2CC2)=C(C(=O)OC(C)(C)c2ccc(F)cc2)C1c1csc2ncccc12 (stereo not drawn) [Example C97, 2-(4-fluorophenyl)propan-2-yl 5-acetyl-2-cyclopropyl-6-methyl-4-(thieno[2,3-b]pyridin-3-yl)-1,4-dihydropyridine-3-carboxylate]

- IC50: < 100 nM
SMILES: CC(=O)C1=C(C)NC(C2CC2)=C(C(=O)OC2CCCC2)C1c1csc2ncccc12 (stereo not drawn) [Example C100, Cyclopentyl 5-acetyl-2-cyclopropyl-6-methyl-4-(thieno[2,3-b]pyridin-3-yl)-1,4-dihydropyridine-3-carboxylate]

- IC50: < 100 nM
SMILES: CC(=O)C1=C(C)NC(C2CC2)=C(C(=O)OCC2CC2)C1c1csc2c(C#N)cccc12 (stereo not drawn) [Example C101, Cyclopropylmethyl 5-acetyl-4-(7-cyanobenzo[b]thiophen-3-yl)-2-cyclopropyl-6-methyl-1,4-dihydropyridine-3-carboxylate]

- IC50: < 100 nM
SMILES: COC(=O)C1=C(C)NC(C2CC2)=C(C(=O)OC)C1c1csc2c(C#N)cccc12 (stereo not drawn) [Example C103, Dimethyl 4-(7-cyanobenzo[b]thiophen-3-yl)-2-cyclopropyl-6-methyl-1,4-dihydropyridine-3,5-dicarboxylate]

- IC50: 100 to 1000 nM
SMILES: COC(=O)C1=C(C2CCCC2)NC(C)=C(C(C)=O)C1c1csc2c(Br)cccc12 (stereo not drawn) [Example C105, Methyl 5-acetyl-4-(7-bromobenzo[b]thiophen-3-yl)-2-cyclopentyl-6-methyl-1,4-dihydropyridine-3-carboxylate]
